Experimental findings from patent US20240325544A1, “CATIONIC LIPID FOR COVALENT MODIFICATION OF PEPTIDES” (PharmalN Corporation, priority 2023, published 2024) are described below.

Numbered stars: 1 amine (or outer) side, 2 acyl side, 3 side chain; on linkers, the order of the positions; unused ones are H or OH. Square brackets hold non-standard residues; d marks the D form. Peptide text beside a SMILES is read from it. * marks the point of attachment. C18 diacid = O=C(O)CCCCCCCCCCCCCCCCC(=O)*; γGlu = O=C(O)[C@H](CCC(=O)[*:2])N[*:1]; Palmitoyl = CCCCCCCCCCCCCCCC(=O)*; Dab = NCC[C@H](N)C(=O)O; Dap = NC[C@H](N)C(=O)O; AEEA = NCCOCCOCC(=O)O; GABA = NCCCC(=O)O Some results are limits rather than exact numbers.

Data set [1] is described as follows: Clinically observable adverse effects of cationic alkyl moieties after subcutaneous bolus in rats (Table 1). In kind it is in vivo, rat. The note with it: male, Sprague-Dawley, rat, in vivo, sc, tested at 3.0, 5.0 or 10 μmol/kg, lethargy is considered maximum tolerated bolus dose, read-out: Lethargy* in n = 3. The method, then:
(§1) Drug administration and observation: Each rat received a subcutaneous injection of a cationic alkyl modifier (SEQ ID NO: 1-22; listed in Table 1 below) in a buffer of sterile water adjusted to a pH between 4.5-5, with an initial bolus dose of 5.0 μmol/kg and an injection volume of 1.0 mL/kg. The bolus dose level was adjusted based on observations, and animals were monitored closely for lethargy, ataxia, swelling, or discoloration during the first 4 hours post-injection and hourly thereafter. As used herein, “ataxia” means a clinical sign observed as poor muscle control that causes clumsy voluntary movements. It may cause difficulty with mobility, coordination, and eye movements. As used herein, “lethargy” means a clinical sign observed as inability or unwillingness to resume normal activity characterized by exploring and alertness. Lethargic rats are easily observed by displaying little to no activity and/or unwillingness to explore around, half closed eyes, and hunched posture. As used herein, “swelling” means a clinical sign observed as the enlargement or engorgement of body parts with blood or fluid and is associated with visible redness (discoloration). If no swelling occurred, dose level was increased to 10 μmol/kg; if swelling was present, bolus dose level was decreased to 3.0 μmol/kg. A wash-out period of 1 week was allowed between bolus doses, and animals were humanely euthanized through CO2 asphyxiation after final observation.

The subject of another data set is Sprague Dawley rats. Described as above. In kind it is in vivo, rat. The conditions noted are these: tested at 3.0, 5.0 or 10 μmol/kg; for Ataxia** in n = 3: ataxia is bolus dose limiting toxicity; for Swelling and/or Discoloration in n = 3: dose at which sign was seen. The protocol:
as §1

The test system of data set [2] is inflammatory cytokines (MCP1, IL-6, TNFα) in BALF. Kind of data set: LPS ALI model: inflammatory cytokines in BALF by ELISA (Table 4). The data set is classed as in vivo, mice. The conditions noted are these: LPS 0.05 mg/kg IT; SEQ 0.3 mg/kg SC, Sivelestat 150 mg/kg IP; 24 hours. The protocol: Animal care and treatment: Male C57BL/6J mice (6 weeks-old) were purchased from Kyudo (Saga, Japan) and maintained under a 12-hour light/12-hour dark cycle with free access to water and standard mouse diet (MF diet, Oriental Yeast Co., Ltd. Tokyo, Japan). Drug administration: Mice were administered LPS (0.05 mg/kg IT; Sigma-Aldrich) followed by treatment with various test articles, including Sivelestat (150 mg/kg; Nipro, Osaka, Japan), an inhibitor of human neutrophil elastase, injected IP as a positive control, and cationic alkyl modified CNPs (SEQ ID NO: 31, 29, and 30; 0.3 mg/kg (0.1 μmol/kg) SC). The test articles were administered immediately after LPS injection. Additionally, a normal control (NC) group without LPS administration and a Control group receiving only LPS without any test article were included. After 24 hours, the mice were euthanized under isoflurane anesthesia and BALF was harvested. Biochemical analysis: ALI and ARDS are often characterized by increased levels of inflammatory cytokines, including Macrophage Chemoattractant Protein-1 (MCP1), Interleukin-6 (IL-6), and […] (TNFα), in BALF. Decreases in their concentration can indicate the resolution of ALI/ARDS. Concentration of each cytokine (MCP1, IL-6, and TNFα) was measured using an ELISA kit (R&D SYSTEMS, Minneapolis M N). […] Statistical analysis was based on Dunnett's test performed by using GraphPad. (n=5, 8, 8, 8, and 8; NC, Control, PC, SEQ ID NO: 31, SEQ ID NO: 29). *** P<0.001, ** P<0.01, * P<0.05 vs each corresponding Control group.
(An ELISA detects its analyte on a solid surface through an enzyme-linked reagent.)

`CCCCCCCCCCCCCCCC(=O)NCCOCCOCC(=O)NCCOCCOCC(=O)NCCOCCOCC(=O)N[C@@H](CCN)C(=O)N[C@@H](CCN)C(=O)O` [SEQ ID NO: 10, CH3(CH2)14(C═O)-Aeea-Aeea-Aeea-Dab-Dab] ({Palmitoyl-AEEA-AEEA-AEEA}-[Dab]-[Dab]-OH; C-terminus assumed): the MTD in data set [1] is over 10 µmol/kg. In the data set with Sprague Dawley rats, the “Ataxia** in n = 3” value was over 10 µmol/kg and the “Swelling and/or Discoloration in n = 3” value is at least 10 µmol/kg.
For `CCCCCCCCCCCCCCCC(=O)NCCCC(=O)NCCCC(=O)N[C@@H](CCN)C(=O)N[C@@H](CCN)C(=O)O` [SEQ ID NO: 11, CH3(CH2)14(C═O)-γAbu-γAbu-Dab-Dab] ({Palmitoyl-GABA-GABA}-[Dab]-[Dab]-OH; C-terminus assumed) the same measures were over 10 µmol/kg, over 10 µmol/kg and over 10 µmol/kg.
The matching figures for `CCCCCCCCCCCCCCCC(=O)NCCCC(=O)NCCCC(=O)NCCCC(=O)N[C@@H](CCN)C(=O)N[C@@H](CCN)C(=O)O` [SEQ ID NO: 12, CH3(CH2)14(C═O)-γAbu-γAbu-γAbu-Dab-Dab] ({Palmitoyl-GABA-GABA-GABA}-[Dab]-[Dab]-OH; C-terminus assumed): over 10 µmol/kg, over 10 µmol/kg and over 10 µmol/kg.
For `CCCCCCCCCCCCCCCC(=O)NCCOCCOCC(=O)NCCOCCOCC(=O)N[C@@H](CN)C(=O)N[C@@H](CCN)C(=O)O` [SEQ ID NO: 13, CH3(CH2)14(C═O)-Aeea-Aeea-Dap-Dab] ({Palmitoyl-AEEA-AEEA}-[Dap]-[Dab]-OH; C-terminus assumed) the same measures were over 10 µmol/kg, over 10 µmol/kg and over 10 µmol/kg.
As to `CCCCCCCCCCCCCCCC(=O)N[C@@H](CCC(=O)NCCOCCOCC(=O)NCCOCCOCC(=O)N[C@@H](CCN)C(=O)N[C@@H](CCN)C(=O)O)C(=O)O` [SEQ ID NO: 15, CH3(CH2)14(C═O)-γE-Aeea-Aeea-Dab-Dab] ({Palmitoyl-γGlu-AEEA-AEEA}-[Dab]-[Dab]-OH; C-terminus assumed), the MTD in data set [1] was over 10 µmol/kg. In the data set on Sprague Dawley rats, the “Ataxia** in n = 3” value was over 10 µmol/kg and the “Swelling and/or Discoloration in n = 3” value is over 10 µmol/kg.
Turning to `CCCCCCCCCCCCCCCC(=O)N[C@@H](CCC(=O)O)C(=O)NCCOCCOCC(=O)NCCOCCOCC(=O)N[C@@H](CCN)C(=O)N[C@@H](CCN)C(=O)O` [SEQ ID NO: 16, CH3(CH2)14(C═O)-E-Aeea-Aeea-Dab-Dab] (Palmitoyl-E[AEEA][AEEA][Dab][Dab]-OH; C-terminus assumed), the MTD in data set [1] is over 10 µmol/kg. For the same molecule, in the data set on Sprague Dawley rats, the “Ataxia** in n = 3” value is over 10 µmol/kg and the “Swelling and/or Discoloration in n = 3” value was over 10 µmol/kg.
Consider `CCCCCCCCCCCCCCCC(=O)NCCOCCOCC(=O)NCCOCCOCC(=O)NCCOCCOCC(=O)N[C@@H](CCN)C(=O)N[C@@H](CN)C(=O)O` [SEQ ID NO: 17, CH3(CH2)14(C═O)-Aeea-Aeea-Aeea-Dab-Dap] ({Palmitoyl-AEEA-AEEA-AEEA}-[Dab]-[Dap]-OH; C-terminus assumed), for which, in data set [1], the MTD is over 10 µmol/kg. Moreover, in the data set with Sprague Dawley rats, the “Ataxia** in n = 3” value is over 10 µmol/kg and the “Swelling and/or Discoloration in n = 3” value was over 10 µmol/kg.
On to `NCC[C@H](NC(=O)[C@H](CCN)NC(=O)COCCOCCNC(=O)COCCOCCNC(=O)COCCOCCNC(=O)CCCCCCCCCCCCCCCCC(=O)O)C(=O)O` [SEQ ID NO: 18, (HOOC)(CH2)16(C═O)-Aeea-Aeea-Aeea-Dab-Dab] ({C18 diacid-AEEA-AEEA-AEEA}-[Dab]-[Dab]-OH; C-terminus assumed), for which the MTD in data set [1] is over 10 µmol/kg. For the same molecule, in the data set with Sprague Dawley rats, the “Ataxia** in n = 3” value was over 10 µmol/kg and the “Swelling and/or Discoloration in n = 3” value was over 10 µmol/kg.
As to `CCCCCCCCCCCCCCCC(=O)NCCOCCOCC(=O)NCCOCCOCC(=O)NCCOCCOCC(=O)N[C@@H](CN)C(=O)N[C@@H](CN)C(=O)N[C@@H](CN)C(=O)O` [SEQ ID NO: 19, CH3(CH2)14(C═O)-Aeea-Aeea-Aeea-Dap-Dap-Dap] ({Palmitoyl-AEEA-AEEA-AEEA}-[Dap]-[Dap]-[Dap]-OH; C-terminus assumed), the MTD in data set [1] was over 10 µmol/kg. Moreover, in the data set with Sprague Dawley rats, the “Ataxia** in n = 3” value was over 10 µmol/kg and the “Swelling and/or Discoloration in n = 3” value was over 10 µmol/kg.
As to `NC[C@H](NC(=O)[C@H](CN)NC(=O)COCCOCCNC(=O)COCCOCCNC(=O)COCCOCCNC(=O)CCCCCCCCCCCCCCCCC(=O)O)C(=O)O` [SEQ ID NO: 20, (HOOC)(CH2)16(C═O)-Aeea-Aeea-Aeea-Dap-Dap] ({C18 diacid-AEEA-AEEA-AEEA}-[Dap]-[Dap]-OH; C-terminus assumed), in data set [1], the MTD is over 10 µmol/kg. Besides, in the data set on Sprague Dawley rats, the “Ataxia** in n = 3” value was over 10 µmol/kg and the “Swelling and/or Discoloration in n = 3” value was over 10 µmol/kg.
As to `NCC[C@H](NC(=O)[C@H](CCN)NC(=O)COCCOCCNC(=O)COCCOCCNC(=O)CCCCCCCCCCCCCCCCC(=O)O)C(=O)O` [SEQ ID NO: 21, (HOOC)(CH2)16(C═O)-Aeea-Aeea-Dab-Dab] ({C18 diacid-AEEA-AEEA}-[Dab]-[Dab]-OH; C-terminus assumed), the MTD in data set [1] was over 10 µmol/kg. Besides, in the data set on Sprague Dawley rats, the “Ataxia** in n = 3” value is over 10 µmol/kg and the “Swelling and/or Discoloration in n = 3” value was over 10 µmol/kg.
With `CCCCCCCCCCCCCCCC(=O)NCCOCCOCC(=O)NCCOCCOCC(=O)NCCOCCOCC(=O)N[C@@H](CN)C(=O)N[C@@H](CN)C(=O)N[C@@H](CN)C(=O)N[C@@H](CN)C(=O)O` [SEQ ID NO: 22, CH3(CH2)14(C═O)-Aeea-Aeea-Aeea-Dap-Dap-Dap-Dap] ({Palmitoyl-AEEA-AEEA-AEEA}-[Dap][Dap][Dap][Dap]-OH; C-terminus assumed), the MTD in data set [1] is over 10 µmol/kg. For the same molecule, in the data set on Sprague Dawley rats, the “Ataxia** in n = 3” value is over 10 µmol/kg and the “Swelling and/or Discoloration in n = 3” value was over 10 µmol/kg.
With `CC(C)(C)C(=O)Oc1ccc(S(=O)(=O)Nc2ccccc2C(=O)NCC(=O)O)cc1` [Sivelestat, reference compound], in data set [2], the “IL-6 in BALF” value came to 69 % Of Control, the “MCP1 in BALF” value came to 63 % Of Control and the “TNFα in BALF” value is 63 % Of Control.
